According to PMC10896221, “Elucidating the glycan-binding specificity and structure of Cucumis melo agglutinin, a new R-type lectin” (Beilstein Journal of Organic Chemistry, 2024):
pIC50, pKd: −log10 of the molar value.

What was measured:
[1] = biological target: T1, Cucumis melo agglutinin (CMA1) (Cucumis melo, UniProt A0A1S4E5V9, L33V); test: X-ray crystal structure ([…] Å) and ITC; thermal shift with full-length protein; format: binding
T1 construct: gene LOC107992255; CMA1-Nter, N-terminal domain (6–132 in mature protein)
T1 sequence (A0A1S4E5V9 entry or part of it L33V): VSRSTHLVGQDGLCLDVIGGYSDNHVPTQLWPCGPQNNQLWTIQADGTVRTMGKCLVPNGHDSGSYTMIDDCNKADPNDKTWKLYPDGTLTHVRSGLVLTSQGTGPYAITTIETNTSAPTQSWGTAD

[2] = biological target: T2, Cucumis melo agglutinin (CMA1) (Cucumis melo, UniProt A0A1S4E5V9); test: X-ray crystal structure ([…] Å); SPR competition on GalNAc chip; format: binding
T2 construct: gene LOC107992255; full-length CMA1, both CBM13 domains; probably CHO-S expressed with C-terminal His6
T2 sequence (A0A1S4E5V9 entry or part of it): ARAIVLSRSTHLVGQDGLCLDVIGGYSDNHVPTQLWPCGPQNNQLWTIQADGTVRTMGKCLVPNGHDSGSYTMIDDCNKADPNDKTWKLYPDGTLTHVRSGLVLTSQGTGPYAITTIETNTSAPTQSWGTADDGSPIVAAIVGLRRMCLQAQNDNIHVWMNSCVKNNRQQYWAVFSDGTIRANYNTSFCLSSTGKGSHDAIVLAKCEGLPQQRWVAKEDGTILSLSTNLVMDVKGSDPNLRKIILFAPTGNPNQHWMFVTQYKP

| Structure (SMILES) | pKd [1] | pIC50 [2] |
| --- | --- | --- |
| CC(=O)N[C@@H]1[C@@H](O)[C@@H](O)[C@@H](CO)O[C@H]1O [GalNAc] | 3.03 |  |
| CC(=O)N[C@@H]1[C@@H](O)[C@H](O[C@@H]2O[C@H](CO)[C@H](O)[C@H](O)[C@H]2O)[C@@H](CO)O[C@@H]1O [LacNAc, N-acetyllactosamine] |  | 5.85 |
